Columns and labels:
[1] = test system: A549, MCF-7, HeLa and HepG2 cells; experiment: SRB cytotoxicity assay, four tumor cell types taken together; assay type: cell-based; details: Homo sapiens, 72 h, range over A549, MCF-7, HeLa, read-out: single concentration inhibition on the four tumor cells
Experimental: A549 cells (human lung carcinoma cells), MCF-7 cells (human breast cancer cells), HeLa cells (human cervical cancer cells), HepG2 cells (human hepatocellular carcinoma cells), and HUVEC cells (human umbilical vein endothelial cells) were kindly provided by WeiFang Caleb Pharmaceuticals, Inc. A549 cells were cultured in Ham's F12K medium containing 10% fetal bovine serum, 2 mM L-glutamine, and 1.5 g/L sodium bicarbonate; MCF-7 cells were cultured on cell culture flask using RPMI 1640 medium with 2 mM L-glutamine adjusted to contain 1.5 g/L sodium bicarbonate, 4.5 g/L glucose, 10 mM HEPES, 1.0 mM sodium pyruvate, and 10% fetal bovine serum. Hela cells were cultured on Cell culture flask using 2 mM L-glutamine adjusted to contain 1.5 g/L sodium bicarbonate, 4.5 g/L glucose, 10 mM HEPES, and 1.0 mM sodium pyruvate in RPMI 1640 medium supplemented with 0.5 mg/ml G418 and 10% fetal bovine serum. […]
The cell proliferation of adherent cells was determined by sulforhodamine B assay (SRB) (Quan et al., [2009]; Li et al., [2017]). […] OD values were measured for each well with a SPECTRA max 190 Cell microplate reader under 540 nm wavelength. According to the OD value, the cell growth inhibition rate was calculated.

[2] = test system: A549 cells (human lung carcinoma cells); experiment: SRB cytotoxicity assay, A549 cells; assay type: cell-based; details: 72 h, SRB; for IC50: read-out: IC50 (μM) A549
Experimental: (§1) A549 cells (human lung carcinoma cells), MCF-7 cells (human breast cancer cells), HeLa cells (human cervical cancer cells), HepG2 cells (human hepatocellular carcinoma cells), and HUVEC cells (human umbilical vein endothelial cells) were kindly provided by WeiFang Caleb Pharmaceuticals, Inc. A549 cells were cultured in Ham's F12K medium containing 10% fetal bovine serum, 2 mM L-glutamine, and 1.5 g/L sodium bicarbonate; MCF-7 cells were cultured on cell culture flask using RPMI 1640 medium with 2 mM L-glutamine adjusted to contain 1.5 g/L sodium bicarbonate, 4.5 g/L glucose, 10 mM HEPES, 1.0 mM sodium pyruvate, and 10% fetal bovine serum. Hela cells were cultured on Cell culture flask using 2 mM L-glutamine adjusted to contain 1.5 g/L sodium bicarbonate, 4.5 g/L glucose, 10 mM HEPES, and 1.0 mM sodium pyruvate in RPMI 1640 medium supplemented with 0.5 mg/ml G418 and 10% fetal bovine serum. HepG2 cells were cultured in minimum essential medium (Eagle) with 2 mM L-glutamine, Earle's BSS, 1.5 g/L sodium bicarbonate, 0.1 mM non-essential amino acids, 1.0 mM sodium pyruvate, and 10% fetal bovine serum. HUVEC cells were cultured in M199 medium containing 2 mM L-glutamine adjusted to contain 1.5 g/L sodium bicarbonate, 4.5 g/L glucose, 10 mM HEPES, 1.0 mM sodium pyruvate, ECGS, and 10% fetal bovine serum. All cells were cultured at 37°C in 5% CO2.
(§2) The cell proliferation of adherent cells was determined by sulforhodamine B assay (SRB) (Quan et al., [2009]; Li et al., [2017]). All cells were cultured in culture medium containing 10% fetal bovine serum and have been in the logarithmic growth phase. All cell types were seeded in a 96-well culture plate at a concentration of 1–5 × 10^4 cells per well at 37°C in a 5% CO2 incubator for 24 h. The cells were then exposed to seven drug concentrations of dihomooxacalix[4]arene derivatives for 72 h with each concentration located in three wells. Then, the cells were fixed with trichloroacetic acid (TCA). After washing, SRB working solution was added to the cells to […]. SRB combined with protein was dissolved in Tris base. OD values were measured for each well with a SPECTRA max 190 Cell microplate reader under 540 nm wavelength. According to the OD value, the cell growth inhibition rate was calculated.

MCF-7 cells [3] = experiment: Flow cytometry for cell apoptosis analysis (annexin V-FITC/PI); assay type: cell-based, human; details: 48 h, non-treated 14.50 ± 0.68%
Experimental: MCF-7 cells (5 × 10^5 cells/ml) were seeded in six-well plates and treated with compounds at different concentrations for 48 h. The cells were then harvested by trypsinization and washed twice with cold PBS. After centrifugation and removal of the supernatants, cells were resuspended in 400 μl of 1 × binding buffer, which was then added to 5 μl of annexin V-FITC and incubated at room temperature for 15 min. After adding 10 μl of PI, the cells were incubated at room temperature for another 15 min in the dark. The stained cells were analyzed by a flow cytometer (BD Accuri C6).

[4] = test system: HepG2 cells (human hepatocellular carcinoma cells); experiment: SRB cytotoxicity assay, HepG2 cells; assay type: cell-based; details: 72 h, SRB; for IC50: read-out: IC50 (μM) HepG2
Experimental: as §1, §2

[5] = test system: MCF-7 cells (human breast cancer cells); experiment: SRB cytotoxicity assay, MCF-7 cells; assay type: cell-based; details: SRB; for inhibition at 10 µM: MCF7, 10 μM, 72 h; for IC50: MCF7, 72 h, read-out: IC50 (μM) MCF-7
Experimental: as §1, §2

[6] = test system: HUVEC cells (human umbilical vein endothelial cells); experiment: SRB cytotoxicity assay, HUVEC normal cells; assay type: cell-based; details: Homo sapiens, HUVEC, 72 h, 10 μM, SRB; toxicity to normal cells
Experimental: as §1, §2

[7] = test system: HeLa cells (human cervical cancer cells); experiment: SRB cytotoxicity assay, HeLa cells; assay type: cell-based; details: 72 h, SRB; for IC50: read-out: IC50 (μM) HeLa
Experimental: as §1, §2

MCF-7 cells [8] = experiment: Flow cytometry for cell cycle analysis (PI); assay type: cell-based, human; details: 3 μM, 48 h; for percentage of cells in G0/G1 phase: non-treated 61.36 ± 3.65%
Experimental: For flow cytometric analysis of DNA content, MCF-7 cells in exponential growth were treated with compound for 48 h. The cells treated with compound were collected, washed twice with PBS, and then fixed with 75% alcohol overnight. Then, the cells were washed with PBS and resuspended in 100 μl of PBS, 200 mg/ml RNase was added for 30 min to eliminate the interference of RNA, and 20 ml/L propidium iodide (PI; Sigma) was added for 30 min. Then, the cells were washed, and the DNA content was detected by a flow cytometer (BD Accuri C6).

SMILES	melting point [°C]	inhibition at 10 µM [1] [%]	inhibition at 10 µM [2] [%]	IC50 [2] [µM]	apoptotic rate (MCF-7 cells [3]; 1 μM) [%]	apoptotic rate (MCF-7 cells [3]; 3 μM) [%]	apoptotic rate (MCF-7 cells [3]; 10 μM) [%]	inhibition at 10 µM [4] [%]	IC50 [4] [µM]	inhibition at 10 µM [5] [%]	IC50 [5] [µM]	inhibition at 10 µM [6] [%]	inhibition at 10 µM [7] [%]	IC50 [7] [µM]	percentage of cells in G2/M phase (MCF-7 cells [8]; non-treated 10.06 ± 0.91) [%]	percentage of cells in S phase (MCF-7 cells [8]; non-treated 24.69 ± 6.30%) [%]	percentage of cells in G0/G1 phase (MCF-7 cells [8]) [%]
CC(C)(C)c1cc2c(O)c(c1)Cc1cc(C(C)(C)C)cc(c1OCC(=O)NCCO)Cc1cc(C(C)(C)C)cc(c1O)Cc1cc(C(C)(C)C)cc(c1OCC(=O)NCCO)COC2 [Compound 4A, 7,13,19,25-tetra-tert-butyl-28,30-di-hydroxy-27,29-di-(N-(2-hydroxyethyl)-aminocarbonylmethoxyl)-2,3-dihomo-3-oxacalix[4]arene]	139.7 to 142.3	86 to 100	100	2 ± 0.5	19.63 ± 0.11	15.40 ± 0.13	40.74 ± 0.38	86	2.7 ± 0.4	100	1 ± 0.1	41	100	0.8 ± 0.2	1.87 ± 2.45	20.68 ± 13.12	71.39 ± 11.21
CC(C)CNC(=O)COc1c2cc(C(C)(C)C)cc1Cc1cc(C(C)(C)C)cc(c1O)Cc1cc(C(C)(C)C)cc(c1OCC(=O)NCC(C)C)Cc1cc(C(C)(C)C)cc(c1O)COC2 [Compound 4J, 7,13,19,25-tetra-tert-butyl-28,30-di-hydroxy-27,29-di-(N-isobutyl-aminocarbonylmethoxyl)-2,3-dihomo-3-oxacalix [4]arene]	128.1 to 130.8		54	16.9 ± 3.2				10		40		0	35				
CC(C)(C)c1cc2c(O)c(c1)Cc1cc(C(C)(C)C)cc(c1OCC(=O)NCCCCN)Cc1cc(C(C)(C)C)cc(c1O)Cc1cc(C(C)(C)C)cc(c1OCC(=O)NCCCCN)COC2 [Compound 4C, 7,13,19,25-tetra-tert-butyl-28,30-di-hydroxy-27,29-di-(N-(4-aminobutyl)-aminocarbonylmethoxyl)-2,3-dihomo-3-oxacalix[4] arene]	129.4 to 131.2		42	3.3 ± 0.7				64	5 ± 0.8	78	5.4 ± 2.6	55	96	2.3 ± 0.1			
CC(C)(C)c1cc2c(O)c(c1)Cc1cc(C(C)(C)C)cc3c1OCC(=O)NCCNC(=O)COc1c(cc(C(C)(C)C)cc1Cc1cc(C(C)(C)C)cc(c1O)C3)COC2 [Compound 4E]	204.8 to 206.3		60	12.4 ± 2.2				21		50		26	46				
CC(C)(C)c1cc2c(O)c(c1)Cc1cc(C(C)(C)C)cc(c1OCC(=O)NCCCCCCN)Cc1cc(C(C)(C)C)cc(c1O)Cc1cc(C(C)(C)C)cc(c1OCC(=O)NCCCCCCN)COC2 [Compound 4D, 7,13,19,25-tetra-tert-butyl-28,30-di-hydroxy-27,29-di-(N-(6-aminohexyl)-aminocarbonylmethoxyl)-2,3-dihomo-3-oxa calix[4] arene]	123.3 to 125.9		99	0.7 ± 0.1		33.55 ± 0.78	61.15 ± 2.76	72	2.6 ± 0.2	99	1.8 ± 0.7	90	100	1.9 ± 0.1			73.56 ± 3.95
CC(C)(C)c1cc2c(O)c(c1)Cc1cc(C(C)(C)C)cc3c1OCC(=O)NCCCNC(=O)COc1c(cc(C(C)(C)C)cc1Cc1cc(C(C)(C)C)cc(c1O)C3)COC2 [Compound 4F]	189.5 to 191.4		63	2.9 ± 0.7				9		46		42	59				
CC(C)(C)c1cc2c(O)c(c1)Cc1cc(C(C)(C)C)cc(c1OCC(=O)NCCc1ccccc1)Cc1cc(C(C)(C)C)cc(c1O)Cc1cc(C(C)(C)C)cc(c1OCC(=O)NCCc1ccccc1)COC2 [Compound 4O, 7,13,19,25-tetra-tert-butyl-28,30-di-hydroxy-27,29-di-(N-phenethyl-aminocarbonylmethoxyl)-2,3-dihomo-3-oxacalix [4]arene]	114.6 to 115.9		63	12.6 ± 2				9		45		35	60				
CCNC(=O)COc1c2cc(C(C)(C)C)cc1Cc1cc(C(C)(C)C)cc(c1O)Cc1cc(C(C)(C)C)cc(c1OCC(=O)NCC)Cc1cc(C(C)(C)C)cc(c1O)COC2 [Compound 4H, 7,13,19,25-tetra-tert-butyl-28,30-di-hydroxy-27,29-di-(N-ethyl-aminocarbonylmethoxyl)-2,3-dihomo-3-oxacalix [4]arene]	138.9 to 141.2		31					31		37		6	41				

Source: PMC6923765, “Structural Design, Synthesis, and Preliminary Biological Evaluation of Novel Dihomooxacalix[4]arene-Based Anti-tumor Agents” (Frontiers in Chemistry, 2019)
